Source: the supplement of paper PMC10307832

Assays:
IDH-C35 + Foretinib = compound: Cc1ccccc1C(C(=O)NC1CCCCC1)N(C(=O)Cn1ccnc1C)c1cccc(F)c1 [IDH-C35] + COc1cc2c(Oc3ccc(NC(=O)C4(C(=O)Nc5ccc(F)cc5)CC4)cc3F)ccnc2cc1OCCCN1CCOCC1 [Foretinib] (partner 0.25 µM); test: relative viability (nuclei count vs DMSO), 5 days (fraction); higher = more cells survive
Method in brief: (§1)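 One day after seeding in 1536-well plates, lung cancer cell lines were dosed by pin tool. Dosing was either single-drug or a fixed anchor-drug dose plus five library-drug doses (not always all listed) in √10 steps. After 5 days, nuclei were stained in one fix-and-stain step and counted on 4× images, and relative viability is the nuclei count of treated wells over that of vehicle wells, given as the median of duplicate plates.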

[1] = compound: CC1=C(C(=NN1)C)CC2=C(C3=C(S2)N(C(=O)N(C3=O)C)CC(C)C)C(=O)N4C[C@@H](CO4)O + CC1(C)CCC(c2ccc(Cl)cc2)=C(CN2CCN(c3ccc(C(=O)NS(=O)(=O)c4ccc(N[C@H](CCN5CCOCC5)CSc5ccccc5)c(S(=O)(=O)C(F)(F)F)c4)cc3)CC2)C1 [Navitoclax] (partner 0.5 µM); test: as above
Method in brief: as §1

Cell Line | relative viability (IDH-C35 + Foretinib; first compound 0.08 µM) | relative viability (IDH-C35 + Foretinib; first compound 0.253 µM) | relative viability (IDH-C35 + Foretinib; first compound 0.8 µM) | relative viability (IDH-C35 + Foretinib; first compound 2.53 µM) | relative viability (IDH-C35 + Foretinib; first compound 8 µM) | relative viability ([1]; first compound 0.0025 µM) | relative viability ([1]; first compound 0.007906 µM) | relative viability ([1]; first compound 0.025 µM) | relative viability ([1]; first compound 0.07906 µM) | relative viability ([1]; first compound 0.25 µM)
NCI-H2342 | 0.969 | 1.02 | 1.17 | 1.16 | 1.01 |  |  |  |  | 
SK-MES-1 | 0.983 | 0.955 | 0.897 | 0.971 | 0.756 | 1.3 | 1.42 | 1.12 | 1.28 | 1.33
HCC-366 | 0.986 | 0.981 | 0.937 |  | 0.938 | 1.09 | 0.997 | 1.05 | 1.03 | 1.13
201T | 1.12 | 1.06 | 1.08 | 1.01 | 1.05 | 1.22 | 1.22 | 1.17 | 1.14 | 1.21
HCC-827 | 1.05 | 0.964 | 1.01 | 1.03 | 1.05 | 0.983 | 1.08 | 1.03 | 1.04 | 1.04
NCI-H647 | 1.36 | 1.13 | 1.28 | 1.17 | 1.02 | 1.15 | 1.43 | 1.01 | 1.32 | 1.42
NCI-H2023 | 0.918 | 1 | 1.09 | 0.76 | 0.839 | 0.981 | 0.946 | 0.957 | 0.979 | 0.986
NCI-H520 | 0.788 | 0.749 | 0.821 | 0.72 | 0.654 | 1.22 | 1.16 | 0.654 | 0.558 | 0.683
RERF-LC-KJ | 0.941 | 0.853 | 0.968 | 0.867 | 0.888 | 1.18 | 0.99 | 1.01 | 0.713 | 0.897
A-427 | 1.01 | 1 | 0.967 | 0.903 | 0.944 | 1.01 | 0.948 | 0.889 | 0.886 | 1.16
NCI-H441 | 0.863 | 0.753 | 0.948 | 1 | 0.888 | 0.473 | 0.577 | 0.686 | 0.763 | 0.678
NCI-H1703 | 0.321 | 0.335 | 0.334 | 0.367 | 0.348 | 1.36 | 1.4 | 0.972 | 0.928 | 0.744
NCI-H1792 |  |  |  |  |  | 0.608 | 0.572 | 0.445 | 0.509 | 0.524
Calu-6 | 0.884 | 0.899 | 0.908 | 0.919 | 0.868 | 0.925 | 0.827 | 0.805 | 0.906 | 0.892
SK-LU-1 | 0.833 | 0.839 | 0.87 | 0.878 | 0.901 | 0.717 | 0.662 | 0.528 | 0.744 | 0.545
PC-3 [JPC-3] | 1 | 1.01 | 1.05 | 1.11 | 0.982 | 0.898 | 0.795 | 0.83 | 0.827 | 0.906
EMC-BAC-2 | 0.947 | 1.04 | 1.1 | 0.925 | 0.944 | 1.16 | 1.14 | 1.16 | 1.16 | 1.38
LK-2 | 1.23 | 1.36 | 1.27 | 1.12 | 1.48 | 0.884 | 0.852 | 0.746 | 0.983 | 0.949
NCI-H2126 | 1.14 | 1.22 | 1.15 | 1.14 | 1.06 | 0.852 | 0.877 | 0.882 | 0.829 | 0.826

Cell Line | relative viability (IDH-C35 + Foretinib; first compound 0.08 µM) | relative viability (IDH-C35 + Foretinib; first compound 0.253 µM) | relative viability (IDH-C35 + Foretinib; first compound 0.8 µM) | relative viability (IDH-C35 + Foretinib; first compound 2.53 µM) | relative viability (IDH-C35 + Foretinib; first compound 8 µM) | relative viability ([1]; first compound 0.0025 µM) | relative viability ([1]; first compound 0.007906 µM) | relative viability ([1]; first compound 0.025 µM) | relative viability ([1]; first compound 0.07906 µM) | relative viability ([1]; first compound 0.25 µM)
NCI-H3122 | 0.919 | 0.984 | 0.915 | 0.928 | 0.958 | 1.02 | 1.04 | 0.996 | 1.01 | 0.995
NCI-H1975 | 0.938 | 0.951 | 1.01 | 0.974 | 0.862 | 1.13 | 1.18 | 1.15 | 1.19 | 1.21
NCI-H1944 | 0.91 | 0.934 | 0.888 | 0.827 | 0.798 | 1.03 | 1.04 | 1.08 | 1.08 | 1.02
LU99A | 0.939 | 0.915 | 0.81 | 0.69 | 0.85 | 0.74 | 0.887 | 0.76 | 0.845 | 0.458
SW 1573 | 1.18 | 0.873 | 0.915 | 0.933 | 0.928 | 0.978 | 1.1 | 0.927 | 0.929 | 1.12
NCI-H2347 | 1.19 | 0.992 | 0.799 | 0.955 | 1.01 | 0.86 | 0.691 | 0.828 | 0.69 | 0.771
NCI-H2009 | 1.17 | 1.28 | 1.24 | 1.13 | 1.18 | 1.23 | 1.21 | 1.11 | 1.18 | 1.22
HCC-15 | 1.07 | 0.974 | 0.938 |  | 0.869 | 0.735 | 0.725 | 0.712 | 0.698 | 0.675
HCC-44 |  |  |  |  |  | 0.925 | 1.08 | 1.04 | 0.892 | 1.19
COR-L23 | 0.969 | 0.95 | 0.891 | 1.01 | 1.03 | 0.783 | 0.984 | 0.777 | 0.781 | 0.845
HCC-78 | 0.586 | 0.57 | 0.563 | 0.555 | 0.525 | 0.834 | 0.743 | 0.868 | 0.716 | 0.768
NCI-H1299 | 1.1 | 1.07 | 1.01 | 1.06 | 1.09 | 1.08 | 1.04 | 1.08 | 1.05 | 0.987
NCI-H727 | 0.87 | 0.693 | 1.07 | 0.832 | 0.764 | 0.44 | 0.36 | 0.344 | 0.364 | 0.439
NCI-H2087 | 0.953 | 0.924 | 1.15 |  | 1.17 | 1.05 | 0.979 | 0.953 | 1.1 | 1.16
BEN | 0.631 | 0.685 | 0.616 | 0.629 | 0.593 | 0.0618 | 0.0913 | 0.0867 | 0.0968 | 0.0771
LCLC-103H | 0.795 | 0.717 | 0.85 | 0.754 | 0.736 |  |  |  |  | 
EKVX | 0.832 | 1.02 | 0.75 | 0.703 | 0.614 | 1 | 1.04 | 0.988 | 0.907 | 0.933
LXF-289 | 0.969 | 0.94 | 1.01 | 1.01 | 0.969 | 0.885 | 0.904 | 0.94 | 0.935 | 1
ABC-1 | 1.16 | 0.967 | 0.918 | 1.08 | 1.21 |  |  |  |  | 

Cell Line | relative viability (IDH-C35 + Foretinib; first compound 0.08 µM) | relative viability (IDH-C35 + Foretinib; first compound 0.253 µM) | relative viability (IDH-C35 + Foretinib; first compound 0.8 µM) | relative viability (IDH-C35 + Foretinib; first compound 2.53 µM) | relative viability (IDH-C35 + Foretinib; first compound 8 µM) | relative viability ([1]; first compound 0.0025 µM) | relative viability ([1]; first compound 0.007906 µM) | relative viability ([1]; first compound 0.025 µM) | relative viability ([1]; first compound 0.07906 µM) | relative viability ([1]; first compound 0.25 µM)
NCI-H650 | 1.03 | 1.04 | 1.05 |  | 0.981 |  |  |  |  | 
NCI-H1650 | 1.11 | 1.13 | 1.23 | 0.879 | 1.14 | 1.37 | 1.22 | 1.2 | 1.27 | 1.21
NCI-H2085 | 0.895 | 0.907 | 0.902 | 1 | 0.897 | 1.22 | 1.12 | 1.06 | 1.12 | 1.22
NCI-H1793 | 0.753 | 0.81 | 0.724 |  | 0.624 | 0.617 | 0.415 | 0.411 | 0.435 | 0.501
LC-2-ad | 0.917 | 0.938 | 0.904 |  | 0.908 | 0.459 | 0.461 | 0.463 | 0.481 | 0.58
COR-L 105 | 0.948 | 1.16 | 0.898 | 1.07 | 0.898 | 0.969 | 0.768 | 0.682 | 0.561 | 0.657
NCI-H1355 | 1.04 | 1.02 | 0.935 | 0.982 | 1 | 0.955 | 0.96 | 1.02 | 0.853 | 0.894
H3255 | 1.06 | 0.838 | 0.886 | 1.04 | 0.854 | 0.562 | 0.542 | 0.516 | 0.487 | 0.568
NCI-H1993 | 0.797 | 0.688 | 0.811 | 0.787 | 0.759 | 0.949 | 0.959 | 0.92 | 0.94 | 0.925
NCI-H1734 | 0.799 | 0.913 | 0.936 | 0.796 | 0.774 | 0.843 | 1.1 | 0.772 | 0.931 | 1.02
HOP-62 | 1.11 | 1.01 | 0.999 | 1.09 | 1.13 | 1.15 | 1.03 | 0.857 | 1.08 | 0.857
LOU-NH91 | 0.949 | 0.946 | 0.92 | 0.918 | 0.913 | 0.773 | 0.604 | 0.776 | 0.809 | 0.788
ChaGo-K-1 | 0.871 | 0.973 | 0.913 | 0.928 | 0.839 | 0.996 | 0.903 |  | 1.21 | 1.5
NCI-H2228 | 0.939 | 0.814 | 0.973 | 0.853 | 0.667 | 0.955 | 0.961 | 1.15 | 1 | 1.14
NCI-H661 | 1.03 | 0.964 | 0.981 | 0.988 | 1.03 |  |  |  |  | 
NCI-H1563 | 1.01 | 1.01 | 0.872 | 0.907 | 0.774 |  |  |  |  | 
NCI-H1623 | 0.91 | 0.854 | 0.811 | 0.896 | 0.861 |  |  |  |  | 
SW 900 | 0.729 | 0.909 | 0.877 | 0.6 | 0.926 |  |  |  |  | 
NCI-H358 | 0.757 | 0.738 | 0.685 | 0.769 | 0.603 |  |  |  |  | 
